From PMC11743413 (Bioresources and Bioprocessing, 2025)

Target: T1, SerE (Corynebacterium glutamicum, UniProt Q8NSR3)
T1 construct: gene Cgl0605
Conditions: L-proline released from Pro-Gly in the cells; acid-ninhydrin assay

T1 sequence (Q8NSR3 1-307): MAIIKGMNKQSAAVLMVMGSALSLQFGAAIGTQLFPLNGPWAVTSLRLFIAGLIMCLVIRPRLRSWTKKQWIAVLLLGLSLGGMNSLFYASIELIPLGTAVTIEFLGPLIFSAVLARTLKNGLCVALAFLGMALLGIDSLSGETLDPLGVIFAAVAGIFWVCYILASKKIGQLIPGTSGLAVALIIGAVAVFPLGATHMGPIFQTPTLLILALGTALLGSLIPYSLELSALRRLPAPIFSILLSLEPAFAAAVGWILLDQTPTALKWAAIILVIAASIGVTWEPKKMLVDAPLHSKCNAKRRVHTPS

amino acid export assay after Pro-Gly dipeptide addition; serE deletion versus o: SerE is indeed as an L-proline exporter
Structure (SMILES): O=C(O)[C@@H]1CCCN1 [L-proline]
